# In US20100035926A1, “PYRAZOLE DERIVATIVES AS NON-STEROIDAL GLUCOCORTICOID RECEPTOR LIGANDS” (priority 2006, published 2010):
# Where two headings read alike, the source gives them in different places.
# What was measured:
# GR [1] = target: T1, GR (Homo sapiens, UniProt P04150); test: GR Agonist Assay - MMTV Assay (A549 MMTV cells, renilla luciferase reporter); format: cell-based; settings: 6 h, agonists, read-out: average maximum asymptote in the MMTV agonist assay
# T1 construct: endogenous in cells; host or cells: A549 (human lung carcinoma, ECACC No. 86012804), stably transfected with reporter plasmids only
# T1 sequence (P04150 1-777): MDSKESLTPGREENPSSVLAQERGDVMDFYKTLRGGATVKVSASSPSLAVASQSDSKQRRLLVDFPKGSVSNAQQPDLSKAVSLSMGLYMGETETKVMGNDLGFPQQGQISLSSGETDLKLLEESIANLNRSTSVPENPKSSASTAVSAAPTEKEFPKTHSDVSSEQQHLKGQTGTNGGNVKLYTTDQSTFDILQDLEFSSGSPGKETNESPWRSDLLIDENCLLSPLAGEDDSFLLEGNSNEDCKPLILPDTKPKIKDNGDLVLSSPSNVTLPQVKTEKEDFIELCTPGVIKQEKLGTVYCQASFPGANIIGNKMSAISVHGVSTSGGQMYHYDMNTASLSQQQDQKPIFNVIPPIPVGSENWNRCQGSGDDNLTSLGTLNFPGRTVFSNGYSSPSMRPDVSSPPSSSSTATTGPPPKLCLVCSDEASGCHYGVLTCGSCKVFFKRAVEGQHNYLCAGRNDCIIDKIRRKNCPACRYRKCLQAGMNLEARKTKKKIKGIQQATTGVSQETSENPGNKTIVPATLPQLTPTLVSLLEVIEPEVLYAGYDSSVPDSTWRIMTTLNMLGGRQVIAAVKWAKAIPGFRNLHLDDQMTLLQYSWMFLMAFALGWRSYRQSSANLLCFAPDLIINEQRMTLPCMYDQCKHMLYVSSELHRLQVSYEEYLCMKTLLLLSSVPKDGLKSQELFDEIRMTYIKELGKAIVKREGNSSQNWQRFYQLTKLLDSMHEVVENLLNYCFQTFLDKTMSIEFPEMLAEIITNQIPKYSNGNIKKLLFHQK
# Method: (§1) Stimulation of the cell line with GR agonists results in intracellular signal transduction and ultimately translocation of GR into the nucleus. This activates the inserted DNA sequence resulting in transcription of the integrated luciferase gene, which is quantified using a light emission. The stably transfected cell line was grown as a monolayer in DMEM supplemented with FCS-HI (10%), Non-essential amino acids (1%), L-Glutamine (2 mM), Pen/Strep (1%) and Geneticin (50 mg/ml).
# A 90% confluent T175 flask of A549 MMTV cells was harvested by centrifugation for 5 min at 200 g, resuspended in assay buffer (DMEM supplemented with 10% FCS 2×HI, 2 mM Glutamax, Non essential amino acids and 25 mM HEPES) and diluted to 0.1×10^6/ml. 70 μl of cell solution was dispensed to each well of white Nunc 384-well plates, containing compound at the required concentration. […] The plates were covered to protect the reagents from light, and then incubated at room temperature for approximately 15 mins before reading them on a Viewlux.
# glucocorticoid receptor = target: T2, glucocorticoid receptor (Homo sapiens, UniProt P04150); test: Glucocorticoid Receptor Binding Assay (fluorescence polarisation, displacement of Alexa 555 labelled dexamethasone derivative); settings: at least once in this assay; read-out: glucocorticoid binding pIC50 (converted)
# T2 construct: a partially purified full length glucocorticoid receptor
# T2 sequence (P04150 1-777): T1 sequence (P04150 1-777)
# Method: Compounds were solvated and diluted in DMSO, and transferred directly into assay plates. Fluorescent dexamethasone and a partially purified full length glucocorticoid receptor were added to the plates, together with buffer components to stabilise the GR protein and incubated at room temperature for 2 hr in the dark. Binding of each compound was assessed by analysing the displacement of fluorescent ligand by measuring the decrease in fluorescence polarisation signal from the mixture.
# GR [2] = target: T1, GR; test: GR Functional Assay - NFκB Assay (A549 SPAP cells, TNFα stimulated); format: cell-based; settings: for Emax: agonists, read-out: average maximum asymptote in the NFkB assay
# Method: as §1, with “TNFα” for “GR agonists”, “NFκB” for “GR”, “SPAP” for “luciferase”, “calorimetric assay. […]” for “light emission.”
# A 70% confluent T225 flask of A549 SPAP cells was harvested by centrifugation for 5 mins at 200 g, resuspended in assay buffer (DMEM supplemented with 10% FCS 2×HI, 2 mM L-Glutamine, 1% Pen/Strep and Non essential amino acids) and diluted to 0.16×10^6/ml. 60 μl of cell solution was dispensed to each well of clear Nunc 384-well plates, containing compound at the required concentration. […] Plates were equilibrated to room temperature for 1 hr prior to the addition of 25 μl of pNPP buffer (1M Diethanolamine pH 9.8, 0.5 mM MgCl2, 0.28M NaCl, 2 mg/ml pNPP) to each well of assay plates.
# [3] = at least once in the NFkB assay, A549 SPAP cells, read-out: pIC50 in the NFkB assay (converted)
# [4] = at least once, examples listed as agonists in NFkB and MMTV assays, read-out: potency pIC50 in the NFKB assay (converted)
SMILES,Emax (GR [1]) [%],IC50 (glucocorticoid receptor) [nM],Emax (GR [2]; A549 SPAP cells) [%],IC50 (GR [2]; [3]) [nM],IC50 (GR [2]; [4]) [nM]
"CCN(CC(O)(CNC(=O)c1cnn(-c2ccc(F)cc2)c1N)C(F)(F)F)C(=O)c1cccc(F)c1Cl (racemic) [Example 18 (racemic), 5-amino-N-(2-{[[(2-chloro-3-fluorophenyl)car-bonyl](ethyl)amino]methyl}-3,3,3-trifluoro-2-hydroxypropyl)-1-(4-fluorophenyl)-1H-pyrazole-4-carboxamide]",≥ 40,< 1000,≥ 40,< 1000,< 316
"CCN(CC(O)(CNC(=O)c1cnn(-c2ccc(F)cc2)c1N)C(F)(F)F)C(=O)c1cccc(C(F)(F)F)c1 (racemic) [Example 20 (racemic), 5-amino-N-{2-[(ethyl{[3-(trifluoromethyl)phenyl]carbonyl}amino)methyl]-3,3,3-trifluoro-2-hydroxypropyl}-1-(4-fluorophenyl)-1H-pyrazole-4-carboxamide]",≥ 40,< 1000,≥ 40,< 1000,< 316
"CCN(CC(O)(CNC(=O)c1cnn(-c2ccc(F)cc2)c1N)C(F)(F)F)C(=O)c1ccc(F)cc1Cl (racemic) [Example 23 (racemic), 5-amino-N-(2-{[[(2-chloro-4-fluorophenyl)car-bonyl](ethyl)amino]methyl}-3,3,3-trifluoro-2-hydroxypropyl)-1-(4-fluorophenyl)-1H-pyrazole-4-carboxamide]",≥ 40,< 1000,≥ 40,< 1000,< 316
"CC(=O)c1ccccc1C(=O)N(C)CC(O)(CNC(=O)c1cnn(-c2ccc(F)cc2)c1N)C(F)(F)F (racemic) [Example 27 (racemic), N-(2-{[[(2-acetylphenyl)car-bonyl](methyl)amino]methyl}-3,3,3-trifluoro-2-hydroxypropyl)-5-amino-1-(4-fluorophenyl)-1H-pyrazole-4-carboxamide]",≥ 40,< 1000,≥ 40,< 1000,< 316
"CN(CC(O)(CNC(=O)c1cnn(-c2ccc(F)cc2)c1N)C(F)(F)F)C(=O)c1ccccc1C(F)(F)F (racemic) [Example 28 (racemic), 5-amino-1-(4-fluorophenyl)-N-{3,3,3-trifluoro-2-hydroxy-2-[(methyl{[2-(trifluoromethyl)phenyl]carbonyl}amino)methyl]propyl}-1H-pyrazole-4-carboxamide]",≥ 40,< 1000,≥ 40,< 1000,< 316
"CCN(CC(O)(CNC(=O)c1cnn(-c2ccc(Cl)cc2)c1N)C(F)(F)F)C(=O)c1ccccc1 (racemic) [Example 32 (racemic), 5-amino-1-(4-chlorophenyl)-N-(2-{[ethyl(phenylcarbonyl)amino]methyl}-3,3,3-trifluoro-2-hydroxypropyl)-1H-pyrazole-4-carboxamide]",≥ 40,< 1000,≥ 40,,< 316
"CCN(CC(O)(CNC(=O)c1cnn(-c2cc(F)cc(F)c2)c1N)C(F)(F)F)C(=O)c1ccccc1 (racemic) [Example 33 (racemic), 5-amino-1-(3,5-difluorophenyl)-N-(2-{[ethyl(phenylcarbonyl)amino]methyl}-3,3,3-trifluoro-2-hydroxypropyl)-1H-pyrazole-4-carboxamide]",≥ 40,< 1000,≥ 40,,< 316
"CCN(CC(O)(CNC(=O)c1cnn(-c2cccc(F)c2)c1N)C(F)(F)F)C(=O)c1ccccc1 (racemic) [Example 35 (racemic), 5-amino-N-(2-{[ethyl(phenylcarbonyl)amino]methyl}-3,3,3-trifluoro-2-hydroxypropyl)-1-(3-fluorophenyl)-1H-pyrazole-4-carboxamide]",≥ 40,< 1000,≥ 40,,< 316
"CCN(CC(O)(CNC(=O)c1cnn(-c2cccc(Cl)c2)c1N)C(F)(F)F)C(=O)c1ccccc1 (racemic) [Example 37 (racemic), 5-amino-1-(3-chlorophenyl)-N-(2-{[ethyl(phenylcar-bonyl)amino]methyl}-3,3,3-trifluoro-2-hydroxypropyl)-1H-pyrazole-4-carboxamide]",≥ 40,< 1000,≥ 40,,< 316
"CCN(CC(O)(CNC(=O)c1cnn(-c2ccc(F)cc2)c1N)C(F)(F)F)C(=O)c1ncccc1F (racemic) [Example 38 (racemic), N-{2-[({[5-amino-1-(4-fluorophenyl)-1H-pyrazol-4-yl]carbonyl}amino)methyl]-3,3,3-trifluoro-2-hydroxypropyl}-N-ethyl-3-fluoro-2-pyridinecarboxamide]",≥ 40,< 1000,≥ 40,,< 316
"Nc1c(C(=O)NCC(O)(CN(CCF)C(=O)c2ncccc2F)C(F)(F)F)cnn1-c1ccc(F)cc1 (racemic) [Example 40 (racemic), N-{2-[({[5-amino-1-(4-fluorophenyl)-1H-pyrazol-4-yl]carbonyl}amino)methyl]-3,3,3-trifluoro-2-hydroxypropyl}-3-fluoro-N-(2-fluoroethyl)-2-pyridinecarboxamide]",≥ 40,< 1000,≥ 40,,< 316
"CCN(CC(O)(CNC(=O)c1cnn(-c2ccccc2)c1N)C(F)(F)F)C(=O)c1ccccc1 (racemic) [Example 43 (racemic), 5-amino-N-(2-{[ethyl(phenylcar-bonyl)amino]methyl}-3,3,3-trifluoro-2-hydroxypropyl)-1-phenyl-1H-pyrazole-4-carboxamide]",≥ 40,< 1000,≥ 40,,< 316
"CCN(CC(O)(CNC(=O)c1cnn(-c2ccc(F)cc2)c1N)C(F)(F)F)C(=O)c1ccccc1F (single isomer, unassigned) [Example 4 Enantiomer 2, 5-Amino-N-[2-({ethyl[(2-fluorophenyl)carbonyl]amino}methyl)-3,3,3-trifluoro-2-hydroxypropyl]-1-(4-fluorophenyl)-1H-pyrazole-4-carboxamide]",≥ 40,< 1000,≥ 40,,< 316
